These compounds were tested against CaMKIIδ (Homo sapiens (Human), UniProt Q13557) (assay: radioactive test on the recombinant CaMKIIδ enzyme (ATP-γ33P incorporation into Autocamtide-2)). Details: recombinant CaMKIIδ 0.37 nM, 10 μM ATP, 100 μM Autocamtide-2, two hours at 37°C.
Type: biochemical
Description: The compounds according to the invention were tested in vitro for their capacity to inhibit the kinase function of calcium/calmodulin-dependent protein kinase II delta (CaMKIIδ). CaMKIIδis an intracellular serine/threonine kinase. It has an enzymatic domain that is capable of using ATP to autophosphorylate. Its kinase function allows it to use ATP to phosphorylate its substrates on the serines and/or threonines. Several enzymatic and cellular tests are used to evaluate the activity of the products with respect to the kinase function of CaMKIIδ. The kinase activity of CaMKIIδis evaluated by means of a radioactive test on the recombinant CaMKIIδenzyme. The amount of ATP-γ33P incorporated into the specific substrate Autocamtide-2 during its phosphorylation by CaMKIIδis measured. The effect of the products is quantified by the concentration of product that inhibits the total activity of CaMKIIδby 50% (50% inhibitory concentration=IC50). For the determination of the IC50 values, the product is diluted in 100% of DMSO to obtain a 10 mM stock solution. The concentration range tested during the radioactive test ranges from 3 to 10 000 nM with a final concentration in the test of 1% DMSO. This concentration range may, for the most powerful compounds, be extended to 0.1 nM. On the day of the operation, 5 μl of the compounds are deposited in each well of a 96-well plate at 10 times the concentration of that to be tested. Each concentration is tested in duplicate on the same plate. The negative controls (0% activity) and positive controls (100% activity) receive 5 μL of 10% DMSO solution. A reaction premix containing the 1×kinase buffer and an ATP-MgCl2 mixture is prepared. Extemporaneously, a mixture containing the substrate Autocamtide-2 (100 μM) with calmodulin and calcium, and the solution of enzyme CaMKIIδ, is added to the premix. 45 μL of this mixture are immediately deposited per well. The final concentrations in the 50 μL final volume are as follows: compound 1X, 0.37 nM of CaMKIIδ(Invitrogen reference PV3373), 10 μM of ATP (1 μCi per well), 100 μM of Autocamtide-2, […] of calmodulin, 15 mM MgCl2, 400 μM CaCl2, 10 mM β-glycerophosphate, and 1% of DMSO. Two negative controls are prepared on each plate, a first without enzyme CaMKIIδ, and a second without substrate Autocamtide-2; these two elements are replaced with water. The plate is then incubated for two hours at 37°C. with gentle shaking. The reaction is stopped by adding 20 μL per well of H3PO4 solution. The 50 μL of each well are transferred onto a Whatman P81 filter. After rinsing twice with H3PO4 (150 μl/well per wash), followed by two rinses with 150 μL of H2O, 50 μL of scintillant are added per well. The amount of phosphorylated substrate is detected by means of a liquid scintillation counter. The inhibitory activity toward CaMKIIδis given by the concentration that inhibits 50% of the activity of CaMKIIδ. The IC50 values are generally between 10 μM and 10^−5 μM. In the table below, the IC50 values measured for several compounds (I) of the invention are presented as examples.
With `CCn1c(N)c(C(N)=O)c(=O)c2cnc(Nc3ccc(OC4CCN(C)CC4)cc3)nc21` [compound 76, 7-Amino-8-ethyl-2-[4-(1-methylpiperid-4-yloxy)phenylamino]-5-oxo-5,8-dihydropyrido[2,3-d]pyrimidine-6-carboxamide] the IC50 was 118 nM.
With `CCn1c(N)c(C(N)=O)c(=O)c2cnc(Nc3cccc(CN(C)C)c3)nc21` [compound 78, 7-Amino-2-(3-dimethylaminomethylphenylamino)-8-ethyl-5-oxo-5,8-dihydropyrido[2,3-d]pyrimidine-6-carboxamide] the IC50 was 268 nM.
In the case of `CCc1cc(N2CCN(C3CC3)CC2)ccc1Nc1ncc2c(=O)c(C(N)=O)c(N)n(CC)c2n1` [compound 96, 7-Amino-2-[4-(4-cyclopropylpiperazin-1-yl)-2-ethylphenylamino]-8-ethyl-5-oxo-5,8-dihydropyrido[2,3-d]pyrimidine-6-carboxamide], the IC50 is reported as 396 nM.
